From patent US6818407B2, “Anti-endotoxic antimicrobial cationic peptides and methods of use therfor” (priority 1998, dated 2004)

Columns and labels:
E. coli [1] = assay: MIC, broth microdilution assay in polypropylene microtiter trays; assay type: cell-based; settings: average of three separate experiments
Experimental: (§1) The biological activity of the peptides can be determined by standard methods known to those of skill in the art, such as Aminimal inhibitory concentration (MIC)≅ assay described in the present examples, whereby the lowest concentration at which no change in OD is observed for a given period of time is recorded as MIC. Alternatively, Afractional inhibitory concentration (FIC)≅ is also useful for determination of synergy between the peptides of the invention, or the peptides in combination with known antibiotics. FICs are performed by checkerboard titrations of peptides in one dimension of a microtiter plate, and of antibiotics in the other dimension, for example. The FIC is calculated by looking at the impact of one antibiotic on the MIC of the other and vice versa. […] Preferably, an FIC of less than 0.5 is obtained for synergism. As used herein, FIC can be determined as follows: [formula]
(§2) A method which employed polypropylene microtiter trays in a broth microdilution assay was developed.

P. aeruginosa = assay: as above; assay type: cell-based; settings: average of three separate experiments
Experimental: as §1, §2

S. aureus K147 = assay: as above; assay type: cell-based; settings: average of three separate experiments
Experimental: as §1, §2

S. aureus = assay: as above; assay type: cell-based; settings: average of three separate experiments
Experimental: as §1, §2

S. epidermis = assay: as above; assay type: cell-based; settings: average of three separate experiments
Experimental: as §1, §2

[2] = test system: mutant (Nal B, H744) of P. aeruginosa; assay: microbe, parasite or virus in culture; assay type: cell-based; settings: for (B) MIC of Cipro when combined with peptide: ciprofloxacin with peptide at concentration (A); for MIC A MIC of Peptides: peptide alone, P. aeruginosa mutant Nal B, H744 (Table 5); for (A) Peptide doses together with Cipro: peptide concentration in combination with ciprofloxacin
Experimental: as §1
(§3) To test whether the peptides of the invention synergize with various antibiotics, the following method was employed. Fractional Inhibitory Concentration (FIC) was used to determine synergy of peptides combined with antibiotics (e.g., carbenicillin/ciprofloxacin) against Pseudomonas aeruginosa. The following methodology was followed:
(§4) (1) Determination of MIC of cationic peptides (MIC A):
(§5) 100 μl Mueller Hinton broth (MHB) was added per well
(§6) 12.5 μl of 10× test concentration peptide was added per well to get final peptide concentration of e.g., 128, 64, 32, . . . 0.025 μg/ml from row 1 to 11;
(§7) 10 μl of 10^−4 dilution of overnight bacterial culture was added per well.
(§8) (2) Determination of MIC of Carbenicillin/Ciprofloxacin (MIC B):
(§9) 100 μl MHB was added per well;
(§10) 100 μl of 2× test concentration of antibiotic was added in the first well of the row, and doubling dilutions performed across the plate from column 1 to 11;
(§11) (3) Determination of MIC of antibiotics (B) when combined with peptides at concentration A:
(§12) 100 μl Carbenicillin (512 μg/ml) or Ciprofloxacin (8 μg/ml) was added in each well of column 1; doubling dilutions were performed across the plate;
(§13) 100 μl of the peptide was added in all wells of row 1, mixed, and 100 μl withdrawn and added to row 2, etc., creating a checkerboard titration.
(§14) 10 μl of 10^−4 dilution of overnight culture was added per well;
(§15) plates were incubated at 37EC for 18-24 hours. Combination MIC values A and B were taken as the lowest concentration of drug that reduced bacterial growth by more than 50% in any given column.
(§16) (4) FIC index=FICA+FICB=(A)/MIC A+(B)/MIC B. An FIC index of approximately 0.5 or less indicates synergy; 1.0 reflects additivity; and >1.0 indicates antagonism.

[3] = test system: β-lactamase derepressed mutant (H547) of P. aeruginosa; assay: microbe, parasite or virus in culture; assay type: cell-based; settings: P. aeruginosa H547; for (B) MIC of Carb when combined with peptide: Carbenicillin with peptide at concentration (A); for MIC A MIC of Peptides: peptide alone; for (A) Peptide doses together with Carb: peptide concentration in combination with Carbenicillin
Experimental: as §1, §3, §4, §5, §6, §7, §8, §9, §10, §11, §12, §13, §14, §15, §16

E. coli [4] = assay: Synergy study (checkerboard titration) with hen white lysozyme; assay type: cell-based; settings: for Lowest [CP] showing synergy: cationic peptide concentration, combined with lysozyme; for Lowest [Lyso] showing synergy: lysozyme concentration, combined with the peptide
Experimental: as §1

P. aeruginosa (H103) = assay: as above; assay type: cell-based; settings: for Lowest [CP] showing synergy: cationic peptide concentration, combined with lysozyme; for Lowest [Lyso] showing synergy: lysozyme concentration, combined with the peptide
Experimental: as §1

Salmonella typhi = assay: as above; assay type: cell-based; settings: for Lowest [CP] showing synergy: cationic peptide concentration, combined with lysozyme; for Lowest [Lyso] showing synergy: lysozyme concentration, combined with the peptide
Experimental: as §1

[5] = Lethal endotoxemia in galactosamine-sensitized mice; assay type: in vivo, CD-1 mice; settings: peptide 200 μg intraperitoneal within 10 min of 10 μg LPS; 24 hours post injection; 5 mice per group; no peptide 100
Experimental: To confirm this in vivo, endotoxic shock was induced by intraperitoneal injection of 10 μg of E.coli 0111:B4 LPS in phosphate-buffered saline (PBS; pH 7.2) into galactosamine-sensitized 8- to 10- week old female CD-1 mice (5 per group). In experiments involving peptides, 200 μg in 100 μl of sterile water was injected at separate intraperitoneal sites within 10 min of LPS injection. Survival was monitored at 24 hours post injection.

[6] = test system: Pseudomonas aeruginosa strain M2; assay: Protection of neutropenic CD-1 mice challenged with Pseudomonas aeruginosa; assay type: in vivo; parameters: Survival post bacterial challenge, surviving mice: reference not given here; settings: for Survival (%) post bacterial challenge: PBS 8
Experimental: CD-1 mice were induced to be neutropenic via 3 intraperitoneal injections of cyclophosphamide ([…]) every another day. Immediately after the third administration of cyclophosphamide, the mice were challenged by intraperitoneal injection of Pseudomonas aeruginosa strain M2 (200-300 organisms/mouse). Cationic peptides (200 µg per mouse=8 mg/kg) in 100 µl buffered citrate were injected intraperitoneally at 30 min (single dose) or 30 min and 16 hrs (double dose) post bacterial challenge, respectively. The data were the average values of 2 individual experiments. PBS was used as a control. […] In general single dose protection studies gave better protection than double dose experiments.

CC[C@H](C)[C@H](NC(=O)CNC(=O)[C@@H](NC(=O)[C@H](CCCCN)NC(=O)[C@H](CCCCN)NC(=O)[C@H](Cc1ccccc1)NC(=O)[C@H](CC(C)C)NC(=O)[C@@H](N)CCCCN)[C@@H](C)CC)C(=O)NCC(=O)N[C@@H](C)C(=O)N[C@H](C(=O)N[C@@H](CC(C)C)C(=O)N[C@@H](CCCCN)C(=O)N[C@H](C(=O)N[C@@H](CC(C)C)C(=O)N[C@@H](CCCCN)C(=O)N[C@H](C(=O)N[C@@H](CC(C)C)C(=O)N[C@H](C(=O)N[C@H](C(=O)NCC(=O)N[C@@H](CC(C)C)C(=O)N1CCC[C@H]1C(=O)N[C@@H](C)C(=O)N[C@@H](CC(C)C)C(=O)N[C@@H](CCCCN)C(=O)N[C@@H](CC(C)C)C(=O)N[C@H](C(=O)N[C@@H](CC(C)C)C(=O)N[C@@H](CCCCN)C(=O)O)[C@@H](C)O)[C@@H](C)O)[C@@H](C)O)C(C)C)C(C)C)C(C)C [CM5]
MIC E. coli (E. coli [1]): 4 µg/mL | MIC P. aeruginosa (P. aeruginosa): 16 µg/mL | MIC S. aureus K147 (S. aureus K147): 64 µg/mL | MIC S. aureus (S. aureus): >64 µg/mL | MIC S. epidermis (S. epidermis): 11 µg/mL | (B) MIC of Cipro when combined with peptide ([2]; Nal B, H744): .125 µg/mL | FIC index ([2]; peptide + ciprofloxacin, Nal B, H744): .75 | MIC A MIC of Peptides [2]: 4 µg/mL | (A) Peptide doses together with Cipro ([2]; Nal B, H744): 1 µg/mL | (B) MIC of Carb when combined with peptide [3]: 16 µg/mL | FIC index ([3]; peptide + Carbenicillin, about 0.5 or less synergy, 1.0 additivity, >1.0 antagonism): 0.38 | MIC A MIC of Peptides [3]: 32 µg/mL | (A) Peptide doses together with Carb [3]: 4 µg/mL | FIC for combination of cationic peptide and lysozyme (E. coli [4]): 0.27 | Lowest [CP] showing synergy (E. coli [4]): 1.3 µg/mL | Lowest [Lyso] showing synergy (E. coli [4]): 7.8 µg/mL | FIC for combination of cationic peptide and lysozyme (P. aeruginosa (H103)): 0.63 | Lowest [CP] showing synergy (P. aeruginosa (H103)): 10.4 µg/mL | Lowest [Lyso] showing synergy (P. aeruginosa (H103)): 125 µg/mL | FIC for combination of cationic peptide and lysozyme (Salmonella typhi): 0.56 | Lowest [CP] showing synergy (Salmonella typhi): 10.4 µg/mL | Lowest [Lyso] showing synergy (Salmonella typhi): 62.5 µg/mL | Mortality (%) [5]: 80%

CC[C@H](C)[C@H](NC(=O)CNC(=O)[C@@H](NC(=O)[C@H](CCCCN)NC(=O)[C@H](CCCCN)NC(=O)[C@H](Cc1ccccc1)NC(=O)[C@H](CCCCN)NC(=O)[C@H](Cc1c[nH]c2ccccc12)NC(=O)[C@@H](N)CCCCN)[C@@H](C)CC)C(=O)NCC(=O)N[C@@H](C)C(=O)N[C@H](C(=O)N[C@@H](CC(C)C)C(=O)N[C@@H](CCCCN)C(=O)N[C@H](C(=O)N[C@@H](CC(C)C)C(=O)N[C@@H](CCCCN)C(=O)N[C@H](C(=O)N[C@@H](CC(C)C)C(=O)N[C@H](C(=O)N[C@H](C(=O)NCC(=O)N[C@@H](CC(C)C)C(=O)N1CCC[C@H]1C(=O)N[C@@H](C)C(=O)N[C@@H](CC(C)C)C(=O)N[C@@H](CCCCN)C(=O)N[C@@H](CC(C)C)C(=O)N[C@H](C(=O)N[C@@H](CC(C)C)C(=O)N[C@@H](CCCCN)C(=O)O)[C@@H](C)O)[C@@H](C)O)[C@@H](C)O)C(C)C)C(C)C)C(C)C [CM6]
MIC E. coli (E. coli [1]): 2 µg/mL | MIC P. aeruginosa (P. aeruginosa): 8 µg/mL | MIC S. aureus K147 (S. aureus K147): 32 µg/mL | MIC S. aureus (S. aureus): 32 µg/mL | MIC S. epidermis (S. epidermis): 8 µg/mL | (B) MIC of Cipro when combined with peptide ([2]; Nal B, H744): .125 µg/mL | MIC A MIC of Peptides [2]: 1 µg/mL | (A) Peptide doses together with Cipro ([2]; Nal B, H744): 1 µg/mL | (B) MIC of Carb when combined with peptide [3]: 64 µg/mL | MIC A MIC of Peptides [3]: 2 µg/mL | (A) Peptide doses together with Carb [3]: 1 µg/mL | FIC for combination of cationic peptide and lysozyme (E. coli [4]): 0.08 | Lowest [CP] showing synergy (E. coli [4]): 0.326 µg/mL | Lowest [Lyso] showing synergy (E. coli [4]): 7.8 µg/mL | FIC for combination of cationic peptide and lysozyme (P. aeruginosa (H103)): 0.63 | Lowest [CP] showing synergy (P. aeruginosa (H103)): 5.21 µg/mL | Lowest [Lyso] showing synergy (P. aeruginosa (H103)): 125 µg/mL | FIC for combination of cationic peptide and lysozyme (Salmonella typhi): 0.50 | Lowest [CP] showing synergy (Salmonella typhi): 5.21 µg/mL | Lowest [Lyso] showing synergy (Salmonella typhi): 7.8 µg/mL | Mortality (%) [5]: 100% | Survival post bacterial challenge, surviving mice ([6]; double dose (200 μg per mouse i.p. at 30 min and 16 hrs), 16 hr): 14 | Survival post bacterial challenge, surviving mice ([6]; double dose, 24 hr): 14 | Survival post bacterial challenge, surviving mice ([6]; double dose, 41 hr): 11 | Survival post bacterial challenge, surviving mice ([6]; double dose, 48 hr): 9 | Survival post bacterial challenge, surviving mice ([6]; double dose, 64 hr): 6 | Survival (%) post bacterial challenge ([6]; double dose, 64 hr): 42% | Survival post bacterial challenge, surviving mice ([6]; double dose, 72 hr): 6 | Survival (%) post bacterial challenge ([6]; double dose, 72 hr): 42% | Survival post bacterial challenge, surviving mice ([6]; double dose, 96 hr): 5 | Survival (%) post bacterial challenge ([6]; double dose, 96 hr): 35% | Survival post bacterial challenge, surviving mice ([6]; single dose (200 μg per mouse i.p. at 30 min), 16 hr): 15 | Survival post bacterial challenge, surviving mice ([6]; single dose, 24 hr): 15 | Survival post bacterial challenge, surviving mice ([6]; single dose, 41 hr): 13 | Survival post bacterial challenge, surviving mice ([6]; single dose, 48 hr): 11 | Survival post bacterial challenge, surviving mice ([6]; single dose, 64 hr): 9 | Survival (%) post bacterial challenge ([6]; single dose, 64 hr): 60% | Survival post bacterial challenge, surviving mice ([6]; single dose, 72 hr): 9 | Survival (%) post bacterial challenge ([6]; single dose, 72 hr): 60% | Survival post bacterial challenge, surviving mice ([6]; single dose, 96 hr): 7 | Survival (%) post bacterial challenge ([6]; single dose, 96 hr): 46%

H-KWKSFIKKLTSAAKKVVTTAKPLALIS-OH [CM1]
MIC E. coli (E. coli [1]): 1 µg/mL | MIC P. aeruginosa (P. aeruginosa): 5 µg/mL | MIC S. aureus K147 (S. aureus K147): 32 µg/mL | MIC S. aureus (S. aureus): 64 µg/mL | MIC S. epidermis (S. epidermis): 21 µg/mL | (B) MIC of Cipro when combined with peptide ([2]; Nal B, H744): .25 µg/mL | MIC A MIC of Peptides [2]: 2 µg/mL | (A) Peptide doses together with Cipro ([2]; Nal B, H744): 1 µg/mL | (B) MIC of Carb when combined with peptide [3]: 64 µg/mL | MIC A MIC of Peptides [3]: 16 µg/mL | (A) Peptide doses together with Carb [3]: 2 µg/mL | FIC for combination of cationic peptide and lysozyme (E. coli [4]): 0.19 | Lowest [CP] showing synergy (E. coli [4]): 0.041 µg/mL | Lowest [Lyso] showing synergy (E. coli [4]): 7.8 µg/mL | FIC for combination of cationic peptide and lysozyme (P. aeruginosa (H103)): 0.28 | Lowest [CP] showing synergy (P. aeruginosa (H103)): 0.65 µg/mL | Lowest [Lyso] showing synergy (P. aeruginosa (H103)): 7.8 µg/mL | FIC for combination of cationic peptide and lysozyme (Salmonella typhi): 0.53 | Lowest [CP] showing synergy (Salmonella typhi): 0.531 µg/mL | Lowest [Lyso] showing synergy (Salmonella typhi): 31.3 µg/mL | Mortality (%) [5]: 100%
